Measured values as given in patent publication US8058242B2, “Chimeric proteins with natriuretic activity” (The University of Queensland, priority 2004, dated 2011).

Assays:
[1] = test system: denuded aortic rings, GC A receptor; experiment: Relaxation of noradrenaline constricted endothelium-denuded aortic rings (Example 11); set-up: species or system rat; conditions: GC-A mediated
Description: Male Sprague Dawley rats were killed and the descending thoracic aorta rapidly removed and flushed with physiological solution. After being cleared of adhering fat and connective tissue, 5 mm rings were mounted under 10 g resting tension, between two stainless steel hooks, in organ baths (37° C.) containing carbogenated (95% O2 and 5% CO2) physiological salt solution of the following composition (mM): NaCl, 118.4; NaHCO3, 25; glucose, 11; KCl, 4.7; MgSO4, 1.2; KH2PO4, 1.2 and CaCl2, 2.5. The lower hook was attached to a tissue holder and the upper hook to a force displacement transducer (Grass FTO3). Where indicated endothelial cells were removed by gentle rubbing of the intimal surface with a wire. To confirm the presence or absence of endothelial cells, tissues were precontracted with a sub-maximal concentration of phenylephrine (0.3 μM) and the response to acetylcholine (ACh, 10 μM) observed. Ach-induced relaxation greater than 80% of maximum indicated the presence of endothelium; whereas Ach-induced relaxation less than 10% indicated the absence of endothelium. Ring preparations under resting tension were conditioned by two contraction/relaxation cycles with 40 mM KCl, contracted by a third application of 40 mM KCl and then relaxed with different doses of the venom peptides. Responses were expressed as a percentage relaxation of the precontraction by KCl.
In addition to the peptides tested in example 3, a series of 13 analogs corresponding to the 2a, 2b and 2c grouping of peptides were examined for their ability to dilate noradrenaline constricted aortic rings. The degree of constriction was expressed as a percentage of the KCl induced constriction. The aortic rings were prepared in a manner similar to the method described in example 3. […]. In each case there were at least 3 separate aortic rings tested per peptide and all were denuded of endothelium to ensure responses were confined to the GC A receptor.

conscious rabbits = experiment: Blood pressure and heart rate in conscious rabbits, intravenous infusion dose-response (Example 8); conditions: for recovery of MAP from the hypotension, in words: one hour after the end of infusion
[2] = after a 2 hour recovery period, Table 10B
[3] = after 1 hour recovery period, Table 10A
[4] = highest dose, Table 10A, groups 1, 2A and 3

Sequence	Mean relaxation SEM of denuded aortic rings expressed as % of KCl response [1]	recovery of MAP, in words (conscious rabbits; 2 hours after infusion)	MAP at final dose (conscious rabbits; Table 10B)	Recovery (MAP) (conscious rabbits; [2])	Recovery Delta SED (MAP) (conscious rabbits; [2])	Treatment Effect, change of mean blood pressure during the infusion (conscious rabbits; final dose, Table 10B, groups 2B and 2C)	Recovery (MAP) (conscious rabbits; [3])	Recovery Delta SED (MAP) (conscious rabbits; [3])	reduction of MAP compared to vehicle, in words (conscious rabbits; highest dose)	MAP at final dose (conscious rabbits; highest dose, Table 10A)	Treatment Effect, change of mean blood pressure during the infusion (conscious rabbits; [4])	recovery of MAP from the hypotension, in words (conscious rabbits)
SDSKISAGCFGFPLDRIGSVSGLGCNRIMQNPPKKFSGE (A portion of a natriuretic peptide) [TNPc A7S6]	43.1 ± 8.6%	partially recovered	56.3 mm Hg	66.8 mm Hg	10.5 ± 3.1 mm Hg	−12.9 mm Hg						
SDSKIGNGCFGFPLDRIGSVSGLGCNRPMQNPPKKFSGE (A portion of a natriuretic peptide) [TNPc I28P]	52.6 ± 5.0%						66.6 mm Hg	1.2 ± 2.4 mm Hg	did significantly reduce MAP	65.4 mm Hg	−9.1 mm Hg	did recover from the hypotension
SDSKIGNGCFGFPLDRIGSVSGLGCNRIMQNRPKKFSGE (A portion of a natriuretic peptide) [TNPc P32R]	66.4 ± 8.8%						57.6 mm Hg	0.1 ± 1.4 mm Hg		57.5 mm Hg	−19.9 mm Hg	did recover from the hypotension
